Consider seven compounds from PubChem BioAssay (NCI).

Structures are written as SMILES.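 1) Cells in 96-well plates. 2) Compound, 48 h, 5 concentrations. 3) Linear interpolation between surrounding doses. 4) Unreached endpoint = highest concentration. GI50 is the concentration that inhibits growth by half. TGI denotes the concentration required for complete inhibition of growth.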

Test systems include LOX IMVI melanoma; NCI-H460 lung; COLO 205 colon; TK-10 renal; EKVX NSCLC; M14 melanoma; SR leukemia; HOP-62 NSCLC; MOLT-4 leukemia; A549 NSCLC.
What all share (experiment): NCI anticancer screen, dose series, 48 h

For `COc1cc2c(cc1OCc1ccccc1)N=C[C@@H]1C/C(=C/C(=O)NCCCN3C(=O)c4cccc5cccc(c45)C3=O)CN1C2=O`, the GI50 in the experiment on LOX IMVI melanoma was 0.277 µM; in the experiment with NCI-H460 lung, 0.603 µM; with COLO 205 colon, 1.56 µM; in the experiment on TK-10 renal it was 0.466 µM; in the experiment with EKVX NSCLC it was 1.75 µM; in the experiment on M14 melanoma, 2.17 µM. Moreover, the GI50 was over 100 µM with SR leukemia, 0.583 µM with HOP-62 NSCLC, 0.0553 µM in the experiment with MOLT-4 leukemia and 3.05 µM with A549 NSCLC. The TGI in the experiment on LOX IMVI melanoma is over 35.8 µM; in the experiment with NCI-H460 lung, 7.15 µM; with COLO 205 colon it was 4.81 µM; with TK-10 renal, 3.43 µM; with EKVX NSCLC it was 6.17 µM; in the experiment with M14 melanoma, 6.92 µM. In addition, the TGI with SR leukemia was over 100 µM; in the experiment with HOP-62 NSCLC, over 40.3 µM; with MOLT-4 leukemia, 63.9 µM; with A549 NSCLC, over 100 µM.
As for `C=CCCCCCCCCCCCC1CCC(CC)N1` (stereo not given), the TGI in the experiment with LOX IMVI melanoma was 24.5 µM; in the experiment on NCI-H460 lung, 40.7 µM; in the experiment on COLO 205 colon it was 14.7 µM; in the experiment on TK-10 renal it was 32.1 µM; with EKVX NSCLC, 31.4 µM; with M14 melanoma, 24.6 µM. Further, the TGI with SR leukemia turned out to be 7.12 µM; in the experiment on HOP-62 NSCLC it was 28.5 µM; in the experiment on MOLT-4 leukemia it was 17 µM; in the experiment on A549 NSCLC, 24.8 µM.
Regarding `CCCCCCNC(=O)C1=C(C)NC(C)=C(C(=O)NCCCCCC)C1`, the TGI with LOX IMVI melanoma, in the experiment with NCI-H460 lung, in the experiment on COLO 205 colon, in the experiment with TK-10 renal, in the experiment with EKVX NSCLC and in the experiment with M14 melanoma was over 100 µM throughout. Moreover, the TGI in the experiment with SR leukemia, in the experiment with HOP-62 NSCLC, in the experiment with MOLT-4 leukemia and with A549 NSCLC was over 100 µM each time.
For the compound `O=C(O)C1CCc2ccc3ccccc3c2C1c1cccc2ccccc12` (stereo not given), the TGI in the experiment on LOX IMVI melanoma was 36.3 µM; with NCI-H460 lung, 38.2 µM; in the experiment on COLO 205 colon, 77.7 µM; in the experiment on TK-10 renal, over 100 µM; in the experiment on EKVX NSCLC, 85.8 µM; in the experiment with M14 melanoma it was 38.9 µM. Moreover, the TGI with SR leukemia was 49.9 µM; in the experiment with HOP-62 NSCLC, 35.9 µM; with MOLT-4 leukemia it was 48.7 µM; in the experiment with A549 NSCLC, 36.4 µM.
For the compound `C=CCc1cc2cccc(OC)c2oc1=O`, the TGI in the experiment with LOX IMVI melanoma, with NCI-H460 lung, in the experiment on COLO 205 colon, in the experiment with TK-10 renal, with EKVX NSCLC and with M14 melanoma was over 100 µM throughout. Also, the TGI in the experiment with SR leukemia, in the experiment on HOP-62 NSCLC, in the experiment with MOLT-4 leukemia and in the experiment with A549 NSCLC was over 100 µM throughout.
Turning to `CC(=O)O/N=C/c1ncccc1CO`, the TGI in the experiment with LOX IMVI melanoma, with NCI-H460 lung, in the experiment on COLO 205 colon, with TK-10 renal, in the experiment on EKVX NSCLC and with M14 melanoma was over 100 µM in each case. Besides, the TGI in the experiment with SR leukemia, with HOP-62 NSCLC, in the experiment with MOLT-4 leukemia and with A549 NSCLC was over 100 µM each time.
With `CCCCNc1nc(NC(C)(C)C)nc(NC(C)(C)C)n1`, the GI50 is 3.39 µM in the experiment on LOX IMVI melanoma; 5.13 µM with NCI-H460 lung; 4.44 µM in the experiment on COLO 205 colon; 52.6 µM in the experiment with TK-10 renal; 3.12 µM with EKVX NSCLC; 15.7 µM in the experiment with M14 melanoma. Moreover, the GI50 in the experiment with SR leukemia is 2.8 µM; in the experiment on HOP-62 NSCLC, 18.7 µM; in the experiment with MOLT-4 leukemia, 5.69 µM; with A549 NSCLC, 4.41 µM. Besides, the TGI with LOX IMVI melanoma is 23.6 µM; with NCI-H460 lung, over 100 µM; in the experiment with COLO 205 colon, over 100 µM; with TK-10 renal, over 100 µM; with EKVX NSCLC, over 100 µM; with M14 melanoma, over 100 µM. For the same compound, the TGI in the experiment on SR leukemia is 12.9 µM; with HOP-62 NSCLC, over 100 µM; in the experiment with MOLT-4 leukemia, over 100 µM; in the experiment with A549 NSCLC, over 100 µM.
